Data as given in the NIST ThermoML archive (doi:10.1021/je0502546).
± gives the expanded uncertainty stated by the source.

Columns and labels:
[1] = 101 kPa, Liquid; for viscosity: Capillary tube (Ostwald / Ubbelohde) method
[2] = refractive index (Na D-line) (dimensionless); conditions: 101.33 kPa, Liquid, Standard Abbe refractometry
[3] = xn = mol fraction of the nth substance listed; conditions: 101 kPa, Liquid; for viscosity: Capillary tube (Ostwald / Ubbelohde) method
[4] = refractive index (Na D-line) (dimensionless); xn = mol fraction of the nth substance listed; conditions: 101 kPa, Liquid, Standard Abbe refractometry

COc1ccccc1 [anisole]
Conditions | mass density, [1] [kg/m3] | refractive index, [2] | viscosity, [1] [mPa·s]
293.15 K | 993.8 ± 0.44 | 1.5177 ± 0.0007 | 1.084 ± 0.01
303.15 K | 984.37 ± 0.44 | 1.5124 ± 0.0007 | 0.931 ± 0.009

COc1ccccc1 [anisole] + CCCCc1ccccc1
x1 = 1
Conditions | mass density, [3] [kg/m3] | refractive index, [4] | viscosity, [3] [mPa·s]
293.15 K | 993.8 ± 0.44 | 1.5177 ± 0.0007 | 1.084 ± 0.01
303.15 K | 984.37 ± 0.44 | 1.5124 ± 0.0007 | 0.931 ± 0.009

COc1ccccc1 [anisole] + CCCc1ccccc1
x1 = 1
Conditions | mass density, [3] [kg/m3] | refractive index, [4] | viscosity, [3] [mPa·s]
293.15 K | 993.8 ± 0.44 | 1.5177 ± 0.0007 | 1.084 ± 0.01
303.15 K | 984.37 ± 0.44 | 1.5124 ± 0.0007 | 0.931 ± 0.009

COc1ccccc1 [anisole] + CCc1ccccc1
Conditions | mass density, [3] [kg/m3] | refractive index, [4] | viscosity, [3] [mPa·s]
293.15 K, x1 = 0.1061 | 879.21 ± 0.23 | 1.4977 ± 0.0007 | 0.691 ± 0.006
293.15 K, x1 = 0.2202 | 892.9 ± 0.24 | 1.5 ± 0.0007 | 0.721 ± 0.006
293.15 K, x1 = 0.3206 | 905.19 ± 0.26 | 1.502 ± 0.0007 | 0.752 ± 0.006
293.15 K, x1 = 0.4278 | 918.51 ± 0.28 | 1.5041 ± 0.0007 | 0.789 ± 0.007
293.15 K, x1 = 0.5402 | 932.69 ± 0.31 | 1.5065 ± 0.0007 | 0.834 ± 0.007
293.15 K, x1 = 0.6322 | 944.49 ± 0.33 | 1.5086 ± 0.0007 | 0.876 ± 0.008
293.15 K, x1 = 0.7282 | 956.99 ± 0.36 | 1.5108 ± 0.0007 | 0.923 ± 0.008
293.15 K, x1 = 0.8198 | 969.11 ± 0.39 | 1.513 ± 0.0007 | 0.973 ± 0.009
293.15 K, x1 = 0.8994 | 979.84 ± 0.41 | 1.5153 ± 0.0007 | 1.02 ± 0.009
293.15 K, x1 = 1 | 993.8 ± 0.44 | 1.5177 ± 0.0007 | 1.084 ± 0.01
303.15 K, x1 = 0.1061 | 870.49 ± 0.23 | 1.4922 ± 0.0007 | 0.616 ± 0.005
303.15 K, x1 = 0.2202 | 884.19 ± 0.24 | 1.4944 ± 0.0007 | 0.639 ± 0.006
303.15 K, x1 = 0.3206 | 896.45 ± 0.26 | 1.4964 ± 0.0007 | 0.662 ± 0.006
303.15 K, x1 = 0.4278 | 909.71 ± 0.28 | 1.4986 ± 0.0007 | 0.689 ± 0.006
303.15 K, x1 = 0.5402 | 923.84 ± 0.31 | 1.501 ± 0.0007 | 0.725 ± 0.006
303.15 K, x1 = 0.6322 | 935.58 ± 0.33 | 1.5031 ± 0.0007 | 0.759 ± 0.007
303.15 K, x1 = 0.7282 | 948.02 ± 0.36 | 1.5053 ± 0.0007 | 0.798 ± 0.007
303.15 K, x1 = 0.8198 | 960.07 ± 0.38 | 1.5075 ± 0.0007 | 0.841 ± 0.008
303.15 K, x1 = 0.8994 | 970.71 ± 0.41 | 1.5099 ± 0.0007 | 0.878 ± 0.008
303.15 K, x1 = 1 | 984.37 ± 0.44 | 1.5124 ± 0.0007 | 0.931 ± 0.009

COc1ccccc1 [anisole] + Cc1ccccc1
Conditions | mass density, [3] [kg/m3] | refractive index, [4] | viscosity, [3] [mPa·s]
293.15 K, x1 = 0.0966 | 879.58 ± 0.3 | 1.4993 ± 0.0007 | 0.62 ± 0.006
293.15 K, x1 = 0.1954 | 892.47 ± 0.31 | 1.5016 ± 0.0007 | 0.656 ± 0.006
293.15 K, x1 = 0.2911 | 904.89 ± 0.32 | 1.5037 ± 0.0007 | 0.693 ± 0.006
293.15 K, x1 = 0.3936 | 918.06 ± 0.34 | 1.506 ± 0.0007 | 0.736 ± 0.007
293.15 K, x1 = 0.5043 | 932.17 ± 0.35 | 1.5083 ± 0.0007 | 0.787 ± 0.007
293.15 K, x1 = 0.5985 | 944.06 ± 0.37 | 1.5102 ± 0.0007 | 0.834 ± 0.007
293.15 K, x1 = 0.6995 | 956.7 ± 0.39 | 1.5122 ± 0.0007 | 0.89 ± 0.008
293.15 K, x1 = 0.7956 | 968.63 ± 0.4 | 1.514 ± 0.0007 | 0.947 ± 0.008
293.15 K, x1 = 0.8986 | 981.29 ± 0.42 | 1.5159 ± 0.0007 | 1.013 ± 0.009
293.15 K, x1 = 1 | 993.8 ± 0.44 | 1.5177 ± 0.0007 | 1.084 ± 0.01
303.15 K, x1 = 0.0966 | 870.21 ± 0.3 | 1.4936 ± 0.0007 | 0.549 ± 0.005
303.15 K, x1 = 0.1954 | 883.13 ± 0.31 | 1.4959 ± 0.0007 | 0.579 ± 0.005
303.15 K, x1 = 0.2911 | 895.55 ± 0.32 | 1.4981 ± 0.0007 | 0.61 ± 0.006
303.15 K, x1 = 0.3936 | 908.76 ± 0.34 | 1.5003 ± 0.0007 | 0.645 ± 0.006
303.15 K, x1 = 0.5043 | 922.89 ± 0.35 | 1.5027 ± 0.0007 | 0.687 ± 0.006
303.15 K, x1 = 0.5985 | 934.8 ± 0.37 | 1.5046 ± 0.0007 | 0.726 ± 0.007
303.15 K, x1 = 0.6995 | 947.44 ± 0.38 | 1.5067 ± 0.0007 | 0.772 ± 0.007
303.15 K, x1 = 0.7956 | 959.38 ± 0.4 | 1.5085 ± 0.0007 | 0.818 ± 0.007
303.15 K, x1 = 0.8986 | 972.06 ± 0.42 | 1.5105 ± 0.0007 | 0.872 ± 0.008
303.15 K, x1 = 1 | 984.37 ± 0.44 | 1.5124 ± 0.0007 | 0.931 ± 0.009

COc1ccccc1 [anisole] + c1ccccc1
Conditions | mass density, [3] [kg/m3] | refractive index, [4] | viscosity, [3] [mPa·s]
293.15 K, x1 = 0.0938 | 889.8 ± 0.31 | 1.5032 ± 0.0008 | 0.677 ± 0.006
293.15 K, x1 = 0.1955 | 903.56 ± 0.32 | 1.5053 ± 0.0008 | 0.711 ± 0.006
293.15 K, x1 = 0.3053 | 917.74 ± 0.33 | 1.5074 ± 0.0008 | 0.751 ± 0.007
293.15 K, x1 = 0.3994 | 929.35 ± 0.35 | 1.5091 ± 0.0008 | 0.788 ± 0.007
293.15 K, x1 = 0.5 | 941.27 ± 0.36 | 1.5108 ± 0.0008 | 0.829 ± 0.007
293.15 K, x1 = 0.6005 | 952.68 ± 0.38 | 1.5124 ± 0.0007 | 0.874 ± 0.008
293.15 K, x1 = 0.6996 | 963.47 ± 0.39 | 1.5139 ± 0.0007 | 0.921 ± 0.008
293.15 K, x1 = 0.8013 | 974.11 ± 0.41 | 1.5153 ± 0.0007 | 0.972 ± 0.009
293.15 K, x1 = 0.8978 | 983.8 ± 0.43 | 1.5166 ± 0.0007 | 1.025 ± 0.009
293.15 K, x1 = 1 | 993.8 ± 0.44 | 1.5177 ± 0.0007 | 1.084 ± 0.01
303.15 K, x1 = 0.0938 | 881.47 ± 0.31 | 1.4967 ± 0.0008 | 0.587 ± 0.005
303.15 K, x1 = 0.1955 | 895.16 ± 0.32 | 1.4989 ± 0.0008 | 0.616 ± 0.006
303.15 K, x1 = 0.3053 | 909.24 ± 0.33 | 1.5011 ± 0.0008 | 0.649 ± 0.006
303.15 K, x1 = 0.3994 | 920.76 ± 0.35 | 1.5028 ± 0.0008 | 0.679 ± 0.006
303.15 K, x1 = 0.5 | 932.57 ± 0.36 | 1.5046 ± 0.0008 | 0.714 ± 0.007
303.15 K, x1 = 0.6005 | 943.88 ± 0.37 | 1.5064 ± 0.0007 | 0.751 ± 0.007
303.15 K, x1 = 0.6996 | 954.56 ± 0.39 | 1.508 ± 0.0007 | 0.791 ± 0.007
303.15 K, x1 = 0.8013 | 965.08 ± 0.41 | 1.5096 ± 0.0007 | 0.836 ± 0.008
303.15 K, x1 = 0.8978 | 974.66 ± 0.42 | 1.511 ± 0.0007 | 0.88 ± 0.008
303.15 K, x1 = 1 | 984.37 ± 0.44 | 1.5124 ± 0.0007 | 0.931 ± 0.009
